Reference: patent US10611740B2, “Aryl dihydro-2H-benzo[b][1,4]oxazine sulfonamide and related compounds for use as agonists of RORγ and the treatment of disease” (Lycera Corporation, priority 2015, dated 2020)
pEC50: −log10 of the molar value.

Tests used:
Gal4-RORγ-LBD = target: T1, Gal4-RORγ-LBD (Homo sapiens, UniProt P51449); test: Gal4-RORγ Luciferase Reporter Assay in HEK-293T Cells; type: cell-based; conditions: HEK-293 cells
T1 construct: expressed in transfected cells; host or cells: HEK-293 cells (pcDNA3.1neo plasmid)
T1 sequence (P51449 269-508 limits assumed): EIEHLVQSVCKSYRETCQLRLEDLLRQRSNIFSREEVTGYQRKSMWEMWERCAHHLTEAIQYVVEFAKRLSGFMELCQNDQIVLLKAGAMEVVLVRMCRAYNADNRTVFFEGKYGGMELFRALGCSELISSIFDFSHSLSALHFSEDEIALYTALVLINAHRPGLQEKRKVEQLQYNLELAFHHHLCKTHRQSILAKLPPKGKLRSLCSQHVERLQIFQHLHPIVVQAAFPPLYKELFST
Procedure, shortened: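 In transfected HEK-293 cells (Gal4-RORγ-LBD, Gal4-luciferase), test agents with 2 μM ursolic acid were incubated overnight at 37 °C before luminescent detection. Values are relative to the ursolic-acid-free, compound-free signal (100).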

RORγ-LBD = target: T2, RORγ-LBD (Homo sapiens, UniProt P51449); test: RORγ-Ligand Binding Domain (LBD) TR-FRET Assay; type: biochemical;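 on TR-FRET Assay Max Response: 665/615 nm ratio relative to signal without ursolic acid or compound set at 100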
T2 construct: made in house; host or cells: SF9 cells (baculovirus)
T2 sequence (P51449 269-508 limits assumed): T1 sequence (P51449 269-508 limits assumed)
Procedure, shortened: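 Lysate from SF9 cells expressing His-RORγ-LBD is diluted to about 3 nM final in 50 mM Tris pH 7.0 assay buffer. A biotin-tagged SRC1 LXXLL peptide goes in at 200 nM final, plus ursolic acid at 2 μM final. Test compounds carry 1% DMSO final; signal read by TR-FRET.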

[1] = luciferase reporter, with 2 μM ursolic acid

pEC50 (Gal4-RORγ-LBD; [1])	pEC50 (RORγ-LBD)	pEC50 (Gal4-RORγ-LBD; 2 μM ursolic acid)	SMILES	Gal4-RORγ Assay Max Response (Gal4-RORγ-LBD; [1])	TR-FRET Assay Max Response (RORγ-LBD)	Gal4-RORγ Assay Max Response (Gal4-RORγ-LBD; 2 μM ursolic acid)
> 6.30	> 6.30	–	CC(C)(CO)C(=O)NC[C@H]1CN(S(=O)(=O)c2cccc(C(F)(F)F)c2)c2cc(-c3cc(F)ccc3F)ccc2O1 [Compound 30AU, (S)-N-((6-(2,5-difluorophenyl)-4-((3-(trifluoromethyl)phenyl)-sulfonyl)-3,4-dihydro-2H-benzo[b][1,4]oxazin-2-yl)methyl)-3-hydroxy-2,2-dimethylpropanamide]	** (The symbol “**” indicates a value in the range of greater than 90 to 150)	**** (The symbol “****” indicates a value greater than 200)	–
> 6.30	> 6.30	–	CC(C)c1cccc(-c2ccc3c(c2)N(S(=O)(=O)c2cccc(C(F)(F)F)c2)C[C@H](CCC(=O)O)O3)c1 [Compound 2Y, (S)-3-(6-(3-isopropylphenyl)-4-((3-(trifluoromethyl)phenyl)-sulfonyl)-3,4-dihydro-2H-benzo[b][1,4]oxazin-2-yl)propanoic acid]	** (The symbol “**” indicates a value in the range of greater than 90 to 150)	*** (The symbol “***” indicates a value in the range of greater than 150 to 200)	–
–	> 6.30	> 6.30	CC(C)(C[C@H]1CN(S(=O)(=O)c2cccc(C(F)(F)F)c2)c2cc(-c3cc(F)ccc3C(F)(F)F)ccc2O1)C(=O)O [Compound 32AV, (S)-3-(6-(5-fluoro-2-(trifluoro-methyl)phenyl)-4-((3-(trifluoro-methyl)phenyl)sulfonyl)-3,4-dihydro-2H-benzo[b][1,4]oxazin-2-yl)-2,2-dimethylpropanoic acid]	–	** (The symbol “**” indicates a value in the range of greater than 90 to 150)	** (The symbol “**” indicates a value in the range of greater than 90 to 150)
5.30 to 6.30	> 6.30	–	COc1ncccc1-c1ccc2c(c1)N(S(=O)(=O)c1cccc(C(F)(F)F)c1)C[C@H](CCC(=O)O)O2 [Compound 2BG, (S)-3-(6-(2-methoxypyridin-3-yl)-4-((3-(trifluoromethyl)-phenyl)sulfonyl)-3,4-dihydro-2H-benzo[b][1,4]oxazin-2-yl)propanoic acid]	** (The symbol “**” indicates a value in the range of greater than 90 to 150)	*** (The symbol “***” indicates a value in the range of greater than 150 to 200)	–
–	> 6.30	> 6.30	COc1ccc(F)c(-c2ccc3c(c2)N(S(=O)(=O)c2cccc(C(F)(F)F)c2)C[C@H](CC(C)(C)C(=O)O)O3)c1F [Compound 32BK, (S)-3-(6-(2,6-difluoro-3-methoxyphenyl)-4-((3-(trifluoromethyl)phenyl)sulfonyl)-3,4-dihydro-2H-benzo[b][1,4]oxazin-2-yl)-2,2-dimethylpropanoic acid]	–	*** (The symbol “***” indicates a value in the range of greater than 150 to 200)	** (The symbol “**” indicates a value in the range of greater than 90 to 150)
–	> 6.30	> 6.30	Cc1cccc(-c2ccc3c(c2)N(S(=O)(=O)c2cccc(C(F)(F)F)c2)C[C@H](CC(C)(C)C(=O)O)O3)c1Cl [Compound 32AX, (S)-3-(6-(2-chloro-3-methyl-phenyl)-4-((3-(trifluoromethyl)-phenyl)sulfonyl)-3,4-dihydro-2H-benzo[b][1,4]oxazin-2-yl)-2,2-dimethylpropanoic acid]	–	** (The symbol “**” indicates a value in the range of greater than 90 to 150)	** (The symbol “**” indicates a value in the range of greater than 90 to 150)
> 6.30	> 6.30	–	O=C(O)C1CCN(C(=O)CC[C@H]2CN(S(=O)(=O)c3cccc(C(F)(F)F)c3)c3cc(-c4cccc(Cl)c4)ccc3O2)CC1 [Compound 23C, (S)-1-(3-(6-(3-chlorophenyl)-4-((3-(trifluoromethyl)phenyl)-sulfonyl)-3,4-dihydro-2H-benzo[b][1,4]oxazin-2-yl)propanoyl)piperidine-4-carboxylic acid]	** (The symbol “**” indicates a value in the range of greater than 90 to 150)	*** (The symbol “***” indicates a value in the range of greater than 150 to 200)	–
–	> 6.30	> 6.30	CC(C)(C[C@H]1CN(S(=O)(=O)c2cccc(C(F)(F)F)c2)c2cc(-c3cc(Cl)cc(C(F)(F)F)c3)ccc2O1)C(=O)O [Compound 32AB, (S)-3-(6-(3-chloro-5-(trifluoromethyl)phenyl)-4-((3-(trifluoromethyl)phenyl)sulfonyl)-3,4-dihydro-2H-benzo[b][1,4]oxazin-2-yl)-2,2-dimethylpropanoic acid]	–	*** (The symbol “***” indicates a value in the range of greater than 150 to 200)	** (The symbol “**” indicates a value in the range of greater than 90 to 150)
> 6.30	> 6.30	–	O=C(NC[C@H]1CN(S(=O)(=O)c2cccc(C(F)(F)F)c2)c2cc(-c3cc(F)ccc3F)ccc2O1)C1(F)CC1 [Compound 30AR, (S)-N-((6-(2,5-difluorophenyl)-4-((3-(trifluoromethyl)phenyl)-sulfonyl)-3,4-dihydro-2H-benzo[b][1,4]oxazin-2-yl)-methyl)-1-fluorocyclopropane-1-carboxamide]	* (The symbol “*” indicates a value in the range of 25 to 90)	**** (The symbol “****” indicates a value greater than 200)	–
> 6.30	> 6.30	–	CC(C)C(=O)NC[C@H]1CN(S(=O)(=O)c2cccc(C(F)(F)F)c2)c2cc(-c3cc(F)ccc3F)ccc2O1 [Compound 30AX, (S)-N-((6-(2,5-difluorophenyl)-4-((3-(trifluoromethyl)phenyl)-sulfonyl)-3,4-dihydro-2H-benzo[b][1,4]oxazin-2-yl)methyl)isobutyramide]	** (The symbol “**” indicates a value in the range of greater than 90 to 150)	*** (The symbol “***” indicates a value in the range of greater than 150 to 200)	–
> 6.30	> 6.30	–	O=C(NC[C@H]1CN(S(=O)(=O)c2cccc(C(F)(F)F)c2)c2cc(-c3cc(F)ccc3F)ccc2O1)[C@H]1C[C@H]1F [Compound 30AN, (1R,2R)-N-(((S)-6-(2,5-difluoro-phenyl)-4-((3-(trifluoromethyl)-phenyl)sulfonyl)-3,4-dihydro-2H-benzo[b][1,4]oxazin-2-yl)methyl)-2-fluorocyclo-propane-1-carboxamide]	** (The symbol “**” indicates a value in the range of greater than 90 to 150)	**** (The symbol “****” indicates a value greater than 200)	–
> 6.30	> 6.30	–	O=C(O)CC[C@H]1CN(S(=O)(=O)c2cccc(C(F)(F)F)c2)c2cc(-c3ccc(Cl)c(Cl)c3)ccc2O1 [Compound 2E, (S)-3-(6-(3,4-dichlorophenyl)-4-((3-(trifluoromethyl)phenyl)-sulfonyl)-3,4-dihydro-2H-benzo[b][1,4]oxazin-2-yl)propanoic acid]	** (The symbol “**” indicates a value in the range of greater than 90 to 150)	*** (The symbol “***” indicates a value in the range of greater than 150 to 200)	–
–	> 6.30	> 6.30	O=C(O)C1(C[C@H]2CN(S(=O)(=O)c3cccc(C(F)(F)F)c3)c3cc(-c4cc(F)cc(F)c4Cl)ccc3O2)CCOCC1 [Compound 78C, (S)-4-((6-(2-chloro-3,5-difluoro-phenyl)-4-((3-(trifluoromethyl)-phenyl)sulfonyl)-3,4-dihydro-2H-benzo[b][1,4]oxazin-2-yl)methyl)tetrahydro-2H-pyran-4-carboxylic acid]	–	** (The symbol “**” indicates a value in the range of greater than 90 to 150)	*** (The symbol “***” indicates a value in the range of greater than 150 to 200)
> 6.30	> 6.30	–	O=C(O)CC[C@H]1CN(S(=O)(=O)c2cccc(C(F)(F)F)c2)c2cc(-c3cc(Cl)cc(Cl)c3)ccc2O1 [Compound 2L, (S)-3-(6-(3,5-dichlorophenyl)-4-((3-(trifluoromethyl)phenyl)-sulfonyl)-3,4-dihydro-2H-benzo[b][1,4]oxazin-2-yl)propanoic acid]	*** (The symbol “***” indicates a value in the range of greater than 150 to 200)	*** (The symbol “***” indicates a value in the range of greater than 150 to 200)	–

SMILES	pEC50 (Gal4-RORγ-LBD; [1])	pEC50 (RORγ-LBD)	pEC50 (Gal4-RORγ-LBD; 2 μM ursolic acid)	Gal4-RORγ Assay Max Response (Gal4-RORγ-LBD; [1])	TR-FRET Assay Max Response (RORγ-LBD)	Gal4-RORγ Assay Max Response (Gal4-RORγ-LBD; 2 μM ursolic acid)
O=C(O)CC[C@H]1CN(S(=O)(=O)c2cccc(C(F)(F)F)c2)c2cc(-c3cc(F)ccc3F)ccc2O1 [Compound 2AD, (S)-3-(6-(2,5-difluorophenyl)-4-((3-(trifluoromethyl)-phenyl)sulfonyl)-3,4-dihydro-2H-benzo[b][1,4]oxazin-2-yl)propanoic acid]	> 6.30	> 6.30	–	*** (The symbol “***” indicates a value in the range of greater than 150 to 200)	**** (The symbol “****” indicates a value greater than 200)	–
